This is an account of results in the supplement of paper PMC10307832.

Holding throughout (experiment): relative viability (nuclei count vs DMSO), 5 days (fraction); higher = more cells survive
Compound in one assay: C[C@@H](C(=O)N[C@@H](C1CCCCC1)C(=O)N2CCC[C@H]2C(=O)N[C@@H]3[C@@H](CC4=CC=CC=C34)OCC#CC#CCO[C@@H]5CC6=CC=CC=C6[C@@H]5NC(=O)[C@@H]7CCCN7C(=O)[C@H](C8CCCCC8)NC(=O)[C@H](C)NC)NC [AZD5582]
In outline:
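Five library-drug doses, separated by factors of √10, were pinned into 1536-well plates holding lung cancer cell lines after an overnight stay at 37 °C. Cells were fixed, permeabilised and Hoechst-stained in one step after 5 days without medium change, then imaged at 4×. Viability compares treated-well with vehicle-well nuclei, counted in MetaXpress, as a median across plates. Passing plates had control CV below 25% and at least one doubling.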

Compound in the assay “AZD5582 + Pemetrexed”: C[C@@H](C(=O)N[C@@H](C1CCCCC1)C(=O)N2CCC[C@H]2C(=O)N[C@@H]3[C@@H](CC4=CC=CC=C34)OCC#CC#CCO[C@@H]5CC6=CC=CC=C6[C@@H]5NC(=O)[C@@H]7CCCN7C(=O)[C@H](C8CCCCC8)NC(=O)[C@H](C)NC)NC [AZD5582] + Nc1nc2[nH]cc(CCc3ccc(C(=O)N[C@@H](CCC(=O)O)C(=O)O)cc3)c2c(=O)[nH]1 [Pemetrexed] (partner 0.2 µM)
A digest of the protocol:
(§1)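 Medians of duplicate plates are given as relative viability. That measure is the nuclei count in treated wells divided by the count in vehicle wells. Counts were taken on 4× images of lung cancer cell lines in 1536-well plates, 5 days after pin-tool dosing the day after seeding with one drug alone or a fixed anchor-drug dose plus five library-drug doses (not always all listed) in √10 steps.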

Compound in assay [1]: Cn1nnc2c(C(N)=O)ncn2c1=O [Temozolomide] + N=C(N)NC(=N)NCCc1ccccc1 [Phenformin] (partner 250 µM)
A digest of the protocol: as §1

Compound in the assay “AZD5582 + Bortezomib”: C[C@@H](C(=O)N[C@@H](C1CCCCC1)C(=O)N2CCC[C@H]2C(=O)N[C@@H]3[C@@H](CC4=CC=CC=C34)OCC#CC#CCO[C@@H]5CC6=CC=CC=C6[C@@H]5NC(=O)[C@@H]7CCCN7C(=O)[C@H](C8CCCCC8)NC(=O)[C@H](C)NC)NC [AZD5582] + CC(C)C[C@H](NC(=O)[C@H](Cc1ccccc1)NC(=O)c1cnccn1)B(O)O [Bortezomib] (partner 0.002 µM)
A digest of the protocol:
as §1

Turning to PC-14, the relative viability with AZD5582 (0.001581 µM) was found to be 0.859; with AZD5582 (0.005 µM) it was 1.03; with AZD5582 (0.01581 µM) it was 0.926; with AZD5582 (0.05 µM), 0.932; with AZD5582 + Pemetrexed (first compound 0.001581 µM) it was 0.105; with AZD5582 + Pemetrexed (first compound 0.005 µM), 0.112. The relative viability with AZD5582 + Pemetrexed (first compound 0.01581 µM) was determined as 0.14; with AZD5582 + Pemetrexed (first compound 0.05 µM), 0.101; in assay [1] (first compound 0.2 µM), 0.498; in assay [1] (first compound 0.6325 µM) it was 0.686; in assay [1] (first compound 2 µM), 0.519; in assay [1] (first compound 6.325 µM), 0.31. Further, the relative viability in assay [1] (first compound 20 µM) worked out at 0.105; in the assay with AZD5582 + Bortezomib (first compound 0.001581 µM), 0.736; with AZD5582 + Bortezomib (first compound 0.005 µM) it was 0.777; with AZD5582 + Bortezomib (first compound 0.01581 µM), 0.85; with AZD5582 + Bortezomib (first compound 0.05 µM), 0.743.
Consider RERF-LC-KJ, for which the relative viability with AZD5582 (0.001581 µM) is 0.715; with AZD5582 (0.005 µM) it was 0.668; in the assay with AZD5582 (0.01581 µM), 0.912; with AZD5582 (0.05 µM) it was 0.802; with AZD5582 + Pemetrexed (first compound 0.001581 µM) it was 0.154; in the assay with AZD5582 + Pemetrexed (first compound 0.005 µM), 0.235. Besides, the relative viability turned out to be 0.457 with AZD5582 + Pemetrexed (first compound 0.01581 µM); 0.289 with AZD5582 + Pemetrexed (first compound 0.05 µM); 0.444 in assay [1] (first compound 0.2 µM); 0.466 in assay [1] (first compound 0.6325 µM); 0.442 in assay [1] (first compound 2 µM); 0.41 in assay [1] (first compound 6.325 µM). In addition, the relative viability worked out at 0.427 in assay [1] (first compound 20 µM), 0.42 with AZD5582 + Bortezomib (first compound 0.005 µM), 1.11 with AZD5582 + Bortezomib (first compound 0.01581 µM) and 0.654 in the assay with AZD5582 + Bortezomib (first compound 0.05 µM).
As to SK-LU-1, the relative viability in the assay with AZD5582 (0.001581 µM) stood at 0.888; in the assay with AZD5582 (0.005 µM), 0.777; in the assay with AZD5582 (0.01581 µM), 0.939; with AZD5582 (0.05 µM), 0.47; with AZD5582 + Pemetrexed (first compound 0.001581 µM) it was 0.73; with AZD5582 + Pemetrexed (first compound 0.005 µM), 0.5. The relative viability in the assay with AZD5582 + Pemetrexed (first compound 0.01581 µM) turned out to be 0.978; with AZD5582 + Pemetrexed (first compound 0.05 µM) it was 0.285; in assay [1] (first compound 0.2 µM), 0.635; in assay [1] (first compound 0.6325 µM), 0.57; in assay [1] (first compound 2 µM) it was 0.461; in assay [1] (first compound 6.325 µM), 0.296. The relative viability in assay [1] (first compound 20 µM) worked out at 0.258; with AZD5582 + Bortezomib (first compound 0.001581 µM), 0.436; with AZD5582 + Bortezomib (first compound 0.005 µM) it was 0.697; with AZD5582 + Bortezomib (first compound 0.01581 µM), 0.856; in the assay with AZD5582 + Bortezomib (first compound 0.05 µM), 0.477.
For SW 1573, the relative viability stood at 0.939 with AZD5582 (0.001581 µM); 1.04 with AZD5582 (0.005 µM); 1.03 with AZD5582 (0.01581 µM); 1.13 with AZD5582 (0.05 µM); 0.805 with AZD5582 + Pemetrexed (first compound 0.001581 µM); 0.774 with AZD5582 + Pemetrexed (first compound 0.005 µM). For the same cell line, the relative viability was determined as 0.954 with AZD5582 + Pemetrexed (first compound 0.01581 µM); 0.821 with AZD5582 + Pemetrexed (first compound 0.05 µM); 0.348 in assay [1] (first compound 0.2 µM); 0.384 in assay [1] (first compound 0.6325 µM); 0.457 in assay [1] (first compound 2 µM); 0.367 in assay [1] (first compound 6.325 µM). Further, the relative viability in assay [1] (first compound 20 µM) worked out at 0.348; with AZD5582 + Bortezomib (first compound 0.001581 µM) it was 1.3; in the assay with AZD5582 + Bortezomib (first compound 0.005 µM) it was 0.996; with AZD5582 + Bortezomib (first compound 0.01581 µM) it was 1.04; with AZD5582 + Bortezomib (first compound 0.05 µM), 1.43.
As to UMC-11, the relative viability came to 0.887 with AZD5582 (0.001581 µM); 1.01 with AZD5582 (0.005 µM); 0.96 with AZD5582 (0.01581 µM); 1.03 with AZD5582 (0.05 µM); 0.73 in the assay with AZD5582 + Pemetrexed (first compound 0.001581 µM); 0.848 in the assay with AZD5582 + Pemetrexed (first compound 0.005 µM). The relative viability with AZD5582 + Pemetrexed (first compound 0.01581 µM) came out at 0.755; in the assay with AZD5582 + Pemetrexed (first compound 0.05 µM), 0.864; in assay [1] (first compound 0.2 µM), 0.378; in assay [1] (first compound 0.6325 µM), 0.357; in assay [1] (first compound 2 µM), 0.378; in assay [1] (first compound 6.325 µM), 0.326. The relative viability in assay [1] (first compound 20 µM) turned out to be 0.301; in the assay with AZD5582 + Bortezomib (first compound 0.001581 µM), 0.677; with AZD5582 + Bortezomib (first compound 0.005 µM), 0.873; with AZD5582 + Bortezomib (first compound 0.01581 µM) it was 0.733; with AZD5582 + Bortezomib (first compound 0.05 µM), 0.709.
